Reference: patent US9045493B2, “Furo[3,2-b]- and thieno[3,2-b]pyridin derivatives” (Merck Patent GmbH, priority 2012, dated 2015)

Assays:
[1] = target: T1, TANK binding kinase (TBK1) (Homo sapiens, UniProt Q9UHD2); assay: TBK1 enzyme assay (384-well Flashplate kinase assay); type: biochemical; conditions: 10 μM ATP, 120 Min at 30° C.
T1 sequence (Q9UHD2 1-729): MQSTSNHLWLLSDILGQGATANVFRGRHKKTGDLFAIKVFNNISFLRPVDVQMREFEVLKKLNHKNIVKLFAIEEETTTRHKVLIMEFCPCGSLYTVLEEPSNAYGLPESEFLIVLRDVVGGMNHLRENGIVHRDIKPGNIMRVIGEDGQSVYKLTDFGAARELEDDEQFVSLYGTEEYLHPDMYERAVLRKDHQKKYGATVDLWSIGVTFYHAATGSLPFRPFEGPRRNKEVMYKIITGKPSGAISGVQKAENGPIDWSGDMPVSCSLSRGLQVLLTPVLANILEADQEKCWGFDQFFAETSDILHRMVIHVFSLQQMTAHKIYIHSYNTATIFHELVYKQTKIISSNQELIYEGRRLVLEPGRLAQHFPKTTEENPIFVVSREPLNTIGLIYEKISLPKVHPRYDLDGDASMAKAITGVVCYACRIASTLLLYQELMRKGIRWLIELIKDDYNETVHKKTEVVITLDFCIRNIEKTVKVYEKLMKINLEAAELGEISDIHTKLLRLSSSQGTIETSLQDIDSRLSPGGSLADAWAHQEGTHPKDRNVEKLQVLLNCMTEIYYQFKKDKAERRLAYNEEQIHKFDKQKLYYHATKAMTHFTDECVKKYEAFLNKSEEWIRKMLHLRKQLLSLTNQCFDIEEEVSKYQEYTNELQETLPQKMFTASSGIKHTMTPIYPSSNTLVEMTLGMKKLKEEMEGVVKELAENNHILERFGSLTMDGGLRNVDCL
Experimental: The kinase assay is performed as 384-well Flashplate assay (for e.g. Topcount measurement.
0.6 nM TANK binding kinase (TBK1), 800 nM biotinylated MELK-derived peptide (Biotin-Ah-Ah-[…]) and 10 μM ATP (spiked with 0.25 μCi ^33P-ATP/well) are incubated in a total volume of 50 μl (10 mM MOPS, 10 mM Mg-acetat, 0.1 mM EGTA, 1 mM DTT, 0.02% Brij35, 0.1% BSA, pH 7.5) with or without test compound for 120 Min at 30° C. The reaction is stopped with 25 μl 200 mM EDTA. After 30 Min at room temperature the liquid is removed and each well washed thrice with 100 μl 0.9% sodium chloride solution. Nonspecific reaction is determined in presence of 100 nM Staurosporine. Radioactivity is measured in a Topcount (PerkinElmer). Results (e.g. IC50-values) are calculated with program tools provided by the IT-department (e.g. AssayExplorer, Symyx).

IKKε = target: T2, IKKε (Homo sapiens, UniProt Q14164); assay: IKKε kinase assay (384-well Flashplate); type: biochemical; conditions: 10 μM ATP, 2 hours at 30° C.; read-out: IKKε enzyme assay IC50
T2 sequence (Q14164 1-716): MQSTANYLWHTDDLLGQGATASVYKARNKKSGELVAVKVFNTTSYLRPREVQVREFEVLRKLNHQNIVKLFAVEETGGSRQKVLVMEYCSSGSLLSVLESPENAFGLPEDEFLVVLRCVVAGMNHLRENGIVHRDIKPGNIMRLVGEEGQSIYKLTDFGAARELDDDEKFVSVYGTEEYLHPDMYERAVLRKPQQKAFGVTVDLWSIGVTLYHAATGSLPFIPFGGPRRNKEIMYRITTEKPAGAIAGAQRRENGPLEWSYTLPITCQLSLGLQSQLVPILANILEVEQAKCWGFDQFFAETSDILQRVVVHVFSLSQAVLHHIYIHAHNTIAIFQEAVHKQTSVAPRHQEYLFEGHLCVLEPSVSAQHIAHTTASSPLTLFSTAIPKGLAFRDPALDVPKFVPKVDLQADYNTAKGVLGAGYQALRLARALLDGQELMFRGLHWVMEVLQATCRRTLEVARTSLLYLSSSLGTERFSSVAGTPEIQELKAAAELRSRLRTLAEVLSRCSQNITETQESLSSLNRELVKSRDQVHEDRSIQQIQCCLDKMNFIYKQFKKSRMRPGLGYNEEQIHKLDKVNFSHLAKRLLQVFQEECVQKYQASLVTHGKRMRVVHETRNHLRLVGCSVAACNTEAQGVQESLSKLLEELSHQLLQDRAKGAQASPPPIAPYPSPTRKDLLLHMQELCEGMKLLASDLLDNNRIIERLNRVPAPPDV
Experimental: The kinase assay is performed either as 384-well Flashplate assay (for e.g. Topcount measurement).
1 nM IKKε, 800 nM biotinylated IκBα(19-42) peptide (Biotin-C6-C6-[…]) and 10 μM ATP (spiked with 0.3 μCi ^33P-ATP/well) are incubated in a total volume of 50 μl (10 mM MOPS, 10 mM Mg-acetat, 0.1 mM EGTA, 1 mM Dithiothreitol, 0.02% Brij35, 0.1% BSA, 0.1% BioStab, pH 7.5) with or without test compound for 2 hours at 30° C. The reaction is stopped with 25 μl 200 mM EDTA. After 30 Min at room temperature the liquid is removed and each well washed thrice with 100 μl 0.9% sodium chloride solution. […] Radioactivity is measured with Topcount (PerkinElmer). Results (e.g. IC50-values) are calculated with program tools provided by the IT-department (e.g. AssayExplorer, Symyx).

SMILES | IC50 [1] [nM] | IC50 (IKKε) [nM]
COCCn1cc(-c2cc3nccc(-c4ccc(OC5CCOCC5)c(C#N)c4)c3s2)cn1 [Compound A119] | < 300 | < 300
COc1cc(-c2cc3nccc(-c4ccc(OC5CCOCC5)c(C#N)c4)c3o2)ccc1C(=O)NC1CCCN(C)C1 (stereo not drawn) [Compound A88] | < 300 | < 300
COc1cc(-c2cc3nccc(-c4ccc(OC5CCOCC5)c(C#N)c4)c3o2)ccc1C(=O)NCCN1CCC(F)(F)CC1 [Compound A90] | < 300 | < 300
COc1cc(-c2cc3nccc(-c4ccc(OC5CCOCC5)c(C#N)c4)c3o2)ccc1C(=O)NC1CCOCC1 [Compound A105] | < 300 | < 300
CN1CCN(C(=O)c2ccc(-c3cc4nccc(-c5ccc(OC6CCOC6)c(C#N)c5)c4o3)cc2)CC1 (stereo not drawn) [Compound A42] | < 300 | < 300
Cn1cc(-c2cc3nccc(-c4ccc(OC5CCOCC5)c(C#N)c4)c3o2)cn1 [Compound A46] | < 300 | < 300
N#Cc1cc(-c2ccnc3cc(-c4ccc5cn[nH]c5c4)oc23)ccc1OC1CCOCC1 [Compound A71] | 300 to 3000 | < 300
Cc1ccc(-c2cc3nccc(-c4ccc(OC5CCOCC5)c(C#N)c4)c3o2)o1 [Compound A49] | < 300 | < 300
CN1CCN(C(=O)c2ccc(-c3cc4nccc(-c5ccc(OC6CCOCC6)c(C#N)c5)c4s3)cc2)CC1 [Compound A45] | < 300 | < 300
CCOc1ncccc1-c1cc2nccc(-c3ccc(OC4CCOCC4)c(C#N)c3)c2o1 [Compound A64] | < 300 | < 300
CN1CCN(C(=O)c2ccc(-c3cc4nccc(-c5ccc(OCC6(C)COC6)c(C#N)c5)c4o3)cc2)CC1 [Compound A61] | < 300 | < 300
COc1cccc(-c2cc3nccc(-c4ccc(OC5CCOCC5)c(C#N)c4)c3o2)c1 [Compound A6, 5-[2-(3-methoxy-phenyl)-furo[3,2-b]pyridin-7-yl]-2-(tetrahydro-pyran-4-yloxy)-benzonitrile] | 300 to 3000 | 300 to 3000
CC(CO)(CO)COc1ccc(-c2ccnc3cc(-c4ccc(C(=O)N5CCNCC5)cc4)oc23)cc1C#N [Compound A60] | 300 to 3000 | < 300
CNCCNC(=O)c1ccc(-c2cc3nccc(-c4ccc(OC5CCOCC5)c(C#N)c4)c3o2)cc1 [Compound A15, 4-{7-[3-cyano-4-(tetrahydro-pyran-4-yloxy)-phenyl]-furo[3,2-b]pyridin-2-yl}-N-(2-methylamino-ethyl)-benzamide] | 300 to 3000 | < 300
COc1cc(-c2cc3nccc(-c4ccc(OC5CCOC5)c(C#N)c4)c3s2)ccc1C(=O)N1CCNCC1 (stereo not drawn) [Compound A100] | < 300 | < 300
CN(CCO)C(=O)c1ccc(-c2cc3nccc(-c4ccc(OC5CCOCC5)c(C#N)c4)c3o2)cc1 [Compound A25, 4-{7-[3-cyano-4-(tetrahydro-pyran-4-yloxy)-phenyl]-furo[3,2-b]pyridin-2-yl}-N-(2-hydroxy-ethyl)-N-methyl-benzamide] | < 300 | < 300
COc1cc(-c2cc3nccc(-c4ccc(OC5CCOCC5)c(C#N)c4)c3o2)ccc1C(=O)N1CC[C@H](O)C1 [Compound A92] | < 300 | < 300
N#Cc1cc(-c2ccnc3cc(-c4ccc(C(=O)N5CCC(O)CC5)cc4F)oc23)ccc1OC1CCOCC1 [Compound A113] | < 300 | < 300
COc1cc(-c2cc3nccc(-c4ccc(OC5CCOCC5)c(C#N)c4)c3o2)ccc1C(=O)N1CCN(CCO)CC1 [Compound A89] | < 300 | < 300
N#Cc1cc(-c2ccnc3cc(-c4ccc(C(=O)N5CCNCC5)cc4)oc23)ccc1OC1CCOC1 (stereo not drawn) [Compound A43] | < 300 | < 300
COCCNC(=O)c1ccc(-c2cc3nccc(-c4ccc(OC5CCOCC5)c(C#N)c4)c3o2)cc1 [Compound A22, 4-{7-[3-cyano-4-(tetrahydro-pyran-4-yloxy)-phenyl]-furo[3,2-b]pyridin-2-yl}-N-(2-methoxy-ethyl)-benzamide] | 300 to 3000 | 300 to 3000
N#Cc1cc(-c2ccnc3cc(-c4ccc(C(=O)N5CCNCC5)cc4)oc23)ccc1N1CCOCC1 [Compound A73] | < 300 | < 300

Second part, the molecule after the results:

IC50 [1] [nM] | IC50 (IKKε) [nM] | SMILES
< 300 | < 300 | CN1CCN(C(=O)c2ccc(-c3cc4nccc(-c5ccc(OCC6CCC6)c(C#N)c5)c4o3)cc2)CC1 [Compound A37]
< 300 | < 300 | CN(C)C(=O)c1ccc(-c2cc3nccc(-c4ccc(OC5CCOCC5)c(C#N)c4)c3o2)cc1 [Compound A23, 4-{7-[3-cyano-4-(tetrahydro-pyran-4-yloxy)-phenyl]-furo[3,2-b]pyridin-2-yl}-N,N-dimethyl-benzamide]
< 300 | < 300 | N#Cc1cc(-c2ccnc3cc(-c4cncc(C(=O)N5CCOCC5)c4)oc23)ccc1OC1CCOCC1 [Compound A65]
< 300 | < 300 | N#Cc1cc(-c2ccnc3cc(-c4ccc(C(=O)N5CCOCC5)cc4F)oc23)ccc1OC1CCOCC1 [Compound A114]
< 300 | < 300 | N#Cc1cc(-c2ccnc3cc(-c4cnn(CCN5CCOCC5)c4)oc23)ccc1OC1CCOCC1 [Compound A48]
< 300 | < 300 | N#Cc1cc(-c2ccnc3cc(-c4ccc(C(=O)N5CCNCC5)cc4)oc23)ccc1OCC1CCC1 [Compound A38]
< 300 | < 300 | COc1cc(-c2cc3nccc(-c4ccc(OC5CCOCC5)c(C#N)c4)c3s2)ccc1C(=O)N1CCNCC1 [Compound A52]
300 to 3000 | 300 to 3000 | N#Cc1cc(-c2ccnc3cc(-c4ccc(C(=O)O)cc4)oc23)ccc1OC1CCOCC1 [Compound A16a, 4-{7-[3-Cyano-4-(tetrahydro-pyran-4-yloxy)-phenyl]-furo[3,2-b]pyridin-2-yl}-benzoic acid]
300 to 3000 | 300 to 3000 | CCOC(=O)c1ccc(-c2cc3nccc(-c4ccc(OC5CCOCC5)c(C#N)c4)c3o2)cc1 [Compound A4, 4-{7-[3-cyano-4-(tetrahydro-pyran-4-yloxy)-phenyl]-furo[3,2-b]pyridin-2-yl}-benzoic acid ethyl ester]
300 to 3000 | 300 to 3000 | CS(=O)(=O)c1cncc(-c2cc3nccc(-c4ccc(OC5CCOCC5)c(C#N)c4)c3o2)c1 [Compound A70]
< 300 | < 300 | CN1CCN(C(=O)c2ccc(-c3cc4nccc(-c5ccc(N6CCOCC6)c(C#N)c5)c4o3)cc2)CC1 [Compound A76]
